The experiment deals with Jeko-1 cells. Nature of the experiment: CellTiter-Glo 2.0 Cytotoxicity Assay. The class given is cell-based. The note with it: compounds added Day 1, CellTiter-Glo 2.0 luminescence read on Day 4 or 5. How it is done:
Reaction progress and synthetic intermediate analysis were assessed by LCMS (UV detection with ESI, APCI, or other mass detection) when applicable using a MeCN/water gradient with either TFA, formic acid, or NH4HCO3 modifier. Silica gel and reverse-phase flash column chromatography were conducted with commercially available pre-packed columns. Reverse-phase preparative HPLC purification was performed on preparative HPLC instruments with UV and MS detection using a MeCN/water gradient with either TFA, formic acid, or NH4OH modifier. ^1H NMR spectra were collected at room temperature, and chemical shifts are reported in ppm relative to the residual proteo-solvent signals, and multiplicities, coupling constants (where applicable), and signal integrations are listed parenthetically. Unless otherwise noted, all EC50 data presented in tables refers to the CellTiter-Glo® 2.0 Cytotoxicity Assay that is described in the Biological Assay section.
CellTiter-Glo® 2.0 Cytotoxicity Assay
Step 1: Seed 384-Well Plates for Assay (45 μL Per Well) on Day 0
Jeko-1 cells were quickly thawed in a cryo-vial by incubating them in a 37° C. water bath for <1 min until there is just a small bit of ice left in the vial. The vial was promptly removed and wiped down with 70% ethanol. The cells were transferred from the vial to a sterile centrifuge tube containing 8 mL of pre-warmed cell culture medium. The vial was flushed with an additional 1 mL of medium to ensure complete transfer of cells to the centrifuge tube. The cells were then centrifuged at 150×g for 5 minutes. The supernatant was aspirated, and the cell pellet was resuspended in 10-20 mL cell culture medium. Cells were counted using Vi-cell and prepared 6.6×10^4 cells/ml, 3000 cells/45 μL per well. Then added 45 μL/well of cells into Corning® 384-well Low Flange White Flat Bottom Polystyrene TC-treated Microplates (Corning, Cat #3570) using Standard Cassette Combi (if needed, dispense 1 dummy plate at 20 μL to help normalize Combi, using medium speed). The plates were spun down at 150×g for 30 seconds.
Step 2: Add Compounds on Day 1
The compound plates and reference compound stock were taken out and allowed to thaw at RT. The tubes were centrifuged at 2000×g for 30 seconds. The 10× Intermediate assay plates (Greiner plate, Cat #781280) were prepared using an Echo liquid handler. Proper buffer (HBSS (Gibco, Cat #14025-092)+10 mM HEPES (Gibco, Cat #15630-080)+0.1% BSA (Sigma, Cat #A9576)) were used to make serial dilutions. Media (no cells) was used for Max_E. Compound (5 μL of 10×) was transferred from intermediate plate to assay plate using a Bravo liquid handler using a very slow speed so the cell monolayer wasn't disturbed. The plates were spun down at 150×g for 30 seconds.
Step 3: CellTiter-Glo 2.0 Assay (Promega, Cat #G9242) on Day 4 or 5 (CellTiter-Glo Kit Stored at −70° C.)
The CellTiter-Glo® 2.0 Reagent was thawed at 4° C. overnight, taking care not to expose the reagent to temperatures above 25° C.). The kit was equilibrated to RT for approximately 30 minutes. CellTiter-Glo® 2.0 Reagent (20 μl) was added to 50 μl of medium containing cells using Standard Cassette Combi. The contents were mixed for 2-3 minutes on an orbital shaker to induce cell lysis. The plates were spun down at 150×g for 30 seconds. The plates were allowed to incubate at RT for 5 minutes to stabilize the luminescent signal.
Illustrative compounds of the present disclosure were tested in the above assay in Example 15, and results are provided in the Table 9 below: […]

The mark [1] stands for this setting: Homo sapiens, JeKo-1, read-out: Jeko-1 EC50 (nM), Jeko-1 cells, 3000 cells/well.
[2] abbreviates: Homo sapiens, Jeko-1 cells, 3000 cells/well, read-out: Jeko-1 EC50.
The mark [3] stands for this setting: read-out: Jeko-1 EC50, Jeko-1 cells, 3000 cells/well.

Structures can show the parent of a compound that is named as a salt. Where two headings read alike, the source gives them in different places.

Take `CC[C@@]1(O)C(=O)OCc2c1cc1n(c2=O)Cc2c-1nc1cc(F)c(C)c3c1c2[C@@H](NC(=O)C(C)(CCO)C(F)F)CC3` (single isomer, unassigned) [Compound 39]: under setting [1], the EC50 stood at 4.9 nM.

Turning to `CC[C@@]1(O)C(=O)OCc2c1cc1n(c2=O)Cc2c-1nc1cc(F)c(C)c3c1c2[C@@H](NC(=O)C(CO)C1CC1)CC3` (single isomer, unassigned) [Compound 22], the EC50 under setting [1] was determined as 4.3 nM. Take `CC[C@@]1(O)C(=O)OCc2c1cc1n(c2=O)Cc2c-1nc1cc(F)c(C)c3c1c2[C@@H](NC(=O)C(C)(C)CO)CC3` [Compound 24, N-((1S,9S)-9-ethyl-5-fluoro-9-hydroxy-4-methyl-10,13-dioxo-2,3,9,10,13,15-hexahydro-1H,12H-benzo[de]pyrano[3′,4′: 6,7]indolizino[1,2-b]quinolin-1-yl)-3-hydroxy-2,2-dimethylpropanamide]: the EC50 under setting [2] was determined as 1.8 nM. As to `CC[C@@]1(O)C(=O)OCc2c1cc1n(c2=O)Cc2c-1nc1cc(F)c(C)c3c1c2[C@@H](NCCCO)CC3` [Compound 52], the EC50 under setting [1] was 5.1 nM.

Turning to `CC[C@@]1(O)C(=O)OCc2c1cc1n(c2=O)Cc2c-1nc1cc(F)c(C)c3c1c2[C@@H](NC(=O)[C@@H](C)CO)CC3` [Compound 32, (S)—N-((1S,9S)-9-ethyl-5-fluoro-9-hydroxy-4-methyl-10,13-dioxo-2,3,9,10,13,15-hexahydro-1H,12H-benzo[de]pyrano[3′,4′: 6,7]indolizino[1,2-b]quinolin-1-yl)-3-hydroxy-2-methylpropanamide], under setting [1], the EC50 stood at 1.4 nM. In the case of `CC[C@@]1(O)C(=O)OCc2c1cc1n(c2=O)Cc2c-1nc1cc(F)c(C)c3c1c2[C@@H](NC(=O)C(CO)C1CC1)CC3` (single isomer, unassigned) [Compound 23], the EC50 under setting [3] was 4.6 nM. Consider `CC[C@@]1(O)C(=O)OCc2c1cc1n(c2=O)Cc2c-1nc1cc(F)c(C)c3c1c2[C@@H](NC(=O)[C@H](O)CCO)CC3` (single isomer, unassigned) [Compound 1], for which, under setting [1], the EC50 was determined as 1.4 nM. Regarding `CC[C@@]1(O)C(=O)OCc2c1cc1n(c2=O)Cc2c-1nc1cc(F)c(C)c3c1c2[C@@H](NC(=O)C(C)(O)CO)CC3` (single isomer, unassigned) [Compound 5], the EC50 under setting [3] stood at 6.7 nM. In the case of `CC[C@@]1(O)C(=O)OCc2c1cc1n(c2=O)Cc2c-1nc1cc(F)c(C)c3c1c2[C@@H](NC(=O)[C@@H](O)CN)CC3` [Compound 44], under setting [1], the EC50 worked out at 78 nM. Turning to `CC[C@@]1(O)C(=O)OCc2c1cc1n(c2=O)Cc2c-1nc1cc(F)c(C)c3c1c2[C@@H](NC(=O)C(F)(F)C(C)O)CC3` (single isomer, unassigned) [Compound 8], under setting [3], the EC50 came to 1.6 nM. For `CC[C@@]1(O)C(=O)OCc2c1cc1n(c2=O)Cc2c-1nc1cc(F)c(C)c3c1c2[C@@H](NC(=O)[C@@H](N)CN)CC3` [Compound 50, (S)-2,3-diamino-N-((1S,9S)-9-ethyl-5-fluoro-9-hydroxy-4-methyl-10,13-dioxo-2,3,9,10,13,15-hexahydro-1H,12H-benzo[de]pyrano[3′,4′: 6,7]indolizino[1,2-b]quinolin-1-yl)propanamide formate], the EC50 under setting [1] was found to be 90 nM. In the case of `CC[C@@]1(O)C(=O)OCc2c1cc1n(c2=O)Cc2c-1nc1cc(F)c(C)c3c1c2[C@@H](NC(=O)C(C)(CCO)C(F)F)CC3` (single isomer, unassigned) [Compound 40], under setting [3], the EC50 stood at 4.6 nM. Turning to `CC[C@@]1(O)C(=O)OCc2c1cc1n(c2=O)Cc2c-1nc1cc(F)c(C)c3c1c2[C@@H](NC(=O)C(F)(F)CCN)CC3` [Compound 49, 4-amino-N-((1S,9S)-9-ethyl-5-fluoro-9-hydroxy-4-methyl-10,13-dioxo-2,3,9,10,13,15-hexahydro-1H,12H-benzo[de]pyrano[3′,4′: 6,7]indolizino[1,2-b]quinolin-1-yl)-2,2-difluorobutanamide], the EC50 under setting [1] stood at 14 nM.

As to `CC[C@@]1(O)C(=O)OCc2c1cc1n(c2=O)Cc2c-1nc1cc(F)c(C)c3c1c2[C@@H](NCCO)CC3` [Compound 51, (1S,9S)-9-ethyl-5-fluoro-9-hydroxy-1-((2-hydroxyethyl)amino)-4-methyl-1,2,3,9,12,15-hexahydro-10H,13H-benzo[de]pyrano[3′,4′: 6,7]indolizino[1,2-b]quinoline-10,13-dione formate], the EC50 under setting [2] was found to be 3.7 nM. As for `CC[C@@]1(O)C(=O)OCc2c1cc1n(c2=O)Cc2c-1nc1cc(F)c(C)c3c1c2[C@@H](NC(=O)CCO)CC3` [Compound 27], the EC50 under setting [2] was 3.1 nM. Regarding `CC[C@@]1(O)C(=O)OCc2c1cc1n(c2=O)Cc2c-1nc1cc(F)c(C)c3c1c2[C@@H](NC(=O)C(C)(C)N)CC3` [Compound 41, 2-amino-N-((1S,9S)-9-ethyl-5-fluoro-9-hydroxy-4-methyl-10,13-dioxo-2,3,9,10,13,15-hexahydro-1H,12H-benzo[de]pyrano[3′,4′: 6,7]indolizino[1,2-b]quinolin-1-yl)-2-methylpropanamide formate], under setting [1], the EC50 amounted to 2.3 nM. Same read-out and setting: to `CC[C@@]1(O)C(=O)OCc2c1cc1n(c2=O)Cc2c-1nc1cc(F)c(C)c3c1c2[C@@H](NC(=O)C(N)C(F)(F)F)CC3` (single isomer, unassigned) [Compound 14] belongs 2.8 nM; to `CC[C@@]1(O)C(=O)OCc2c1cc1n(c2=O)Cc2c-1nc1cc(F)c(C)c3c1c2[C@@H](NC(=O)C(CO)C(F)(F)F)CC3` (single isomer, unassigned) [Compound 10], 4.4 nM. The same measure, in the same setting: to `CC[C@@]1(O)C(=O)OCc2c1cc1n(c2=O)Cc2c-1nc1cc(F)c(C)c3c1c2[C@@H](N(C)CC(F)F)CC3` [Compound 60, (1S,9S)-1-((2,2-difluoroethyl)(methyl)amino)-9-ethyl-5-fluoro-9-hydroxy-4-methyl-1,2,3,9,12,15-hexahydro-10H,13H-benzo[de]pyrano[3′,4′: 6,7]indolizino[1,2-b]quinoline-10,13-dione] belongs 9.6 nM; to `CC[C@@]1(O)C(=O)OCc2c1cc1n(c2=O)Cc2c-1nc1cc(F)c(C)c3c1c2[C@@H](NC(=O)C(C)(CO)CO)CC3` [Compound 6], 2.9 nM; to `CC[C@@]1(O)C(=O)OCc2c1cc1n(c2=O)Cc2c-1nc1cc(F)c(C)c3c1c2[C@@H](NC(=O)[C@H](O)CO)CC3` [Compound 29], 3.7 nM.

Take `CC[C@@]1(O)C(=O)OCc2c1cc1n(c2=O)Cc2c-1nc1cc(F)c(C)c3c1c2[C@@H](NC(=O)C(C)(O)CO)CC3` (single isomer, unassigned) [Compound 4]: the EC50 under setting [3] stood at 1.2 nM. On to `CC[C@@]1(O)C(=O)OCc2c1cc1n(c2=O)Cc2c-1nc1cc(F)c(C)c3c1c2[C@@H](NC(=O)[C@H](N)CO)CC3` [Compound 46], for which the EC50 under setting [1] was determined as 5 nM. Same read-out and setting: to `CC[C@@]1(O)C(=O)OCc2c1cc1n(c2=O)Cc2c-1nc1cc(F)c(C)c3c1c2[C@@H](NCC(F)(F)C(F)F)CC3` [Compound 58] belongs 6.2 nM.

For the compound `CC[C@@]1(O)C(=O)OCc2c1cc1n(c2=O)Cc2c-1nc1cc(F)c(C)c3c1c2[C@@H](NC(=O)[C@H](O)CCOC(F)F)CC3` [Compound 21, (R)-4-(difluoromethoxy)-N-((1S,9S)-9-ethyl-5-fluoro-9-hydroxy-4-methyl-10,13-dioxo-2,3,9,10,13,15-hexahydro-1H,12H-benzo[de]pyrano[3′,4′: 6,7]indolizino[1,2-b]quinolin-1-yl)-2-hydroxybutanamide], the EC50 under setting [1] came to 3.6 nM.

As to `CC[C@@]1(O)C(=O)OCc2c1cc1n(c2=O)Cc2c-1nc1cc(F)c(C)c3c1c2[C@@H](NC(=O)C(CO)C(F)(F)F)CC3` (single isomer, unassigned) [Compound 11], under setting [3], the EC50 came out at 5.3 nM.

These data come from US20240116945A1, “EXATECAN-DERIVED TOPOISOMERASE-1 INHIBITORS PHARMACEUTICAL COMPOSITIONS, AND USES THEREOF” (Merck Sharp & Dohme LLC, priority 2022, published 2024).
